We go through two compounds from patent EP4813991A1 (iLeadBMS Co., Ltd., priority 2023, dated 2025).

One test relates to NCI-H23. The test can be described thus: Lung cancer cell proliferation inhibitory activity, NCI-H23. In kind it is cell-based. As to conditions: Homo sapiens, 72 hours, Cell Counting Kit-8, relative IC50. How it is done: (§1) Experiments were performed using three types of lung cancer cell lines to measure the cell proliferation inhibitory ability of the compounds of the present invention. NCI-H23 and NCI-H358 cells were dispensed into a 96-well plate at 100 µL of cell suspension per well using RPM11640 medium containing 10 % FBS and 1 % PS, followed by incubation in a cell incubator at 37 °C and 5 % CO2. A427 cells were dispensed into a 96-well plate at 100 µL of cell suspension per well using DMEM medium containing 10 % FBS and 1 % PS, followed by incubation in a cell incubator at 37 °C and 5 % CO2. The next day, each Example compound (such as Example 8) dissolved and diluted in DMSO across 10 concentration ranges and a DMSO control group were treated on the cells for 72 hours. After completion of the compound treatment, 10 µL of Cell Counting Kit-8 (Dojindo) reagent was added to each well of the 96-well plate, followed by incubation for 2 hours. After inserting the 96-well plate into an Envision plate reader […], luminescence signals were measured. Relative IC50 values were calculated by fitting a dose-response curve using Graphpad PRISM software.
(§2) The lung cancer cell proliferation inhibitory activities of the Example compounds measured by the method described above were evaluated according to the following criteria, and the results are presented in Table 17.
(Formazan colour is commonly taken as a measure of viable cells.)

Another test has as its system NCI-H358 cells. The test can be described thus: Lung cancer cell proliferation inhibitory activity, NCI-H358. In kind it is cell-based. As to conditions: Homo sapiens, 72 hours, Cell Counting Kit-8, relative IC50. How it is done: as §1, §2
The next test relates to MIA-PaCa2-Control. The test can be described thus: Pancreatic cancer cell proliferation inhibitory activity, MIA-PaCa2-Control. It is filed as cell-based. As to conditions: 72 hours, Cell Counting Kit-8, relative IC50. The procedure:
(§3) Experiments were performed using three types of pancreatic cancer cell lines to measure the cell proliferation inhibitory ability of the compounds of the present invention. AsPC-1, MIA-PaCa2-Control, and Gemcitabine resistant-MIA-PaCa2 cells were dispensed into a 96-well plate at 100 uL of cell suspension per well using DMEM medium containing 10 % FBS and 1 % PS, followed by incubation in a cell incubator at 37 °C and 5 % CO2. The next day, the compound of Example 8 dissolved and diluted in DMSO across 10 concentration ranges and a DMSO control group were treated on the cells for 72 hours. After completion of the compound treatment, 10 µL of Cell Counting Kit-8 (Dojindo) reagent was added to each well of the 96-well plate, followed by incubation for 2 hours. […] were measured after inserting the 96-well plate into an Envision plate reader […]. Relative IC50 values were calculated by fitting a dose-response curve using Graphpad PRISM software.
(§4) The pancreatic cancer cell proliferation inhibitory activities of the Example compounds measured by the method described above were evaluated according to the following criteria, and the results are presented in Table 18.

Test [1] deals with Gemcitabine resistant-MIA-PaCa2 cells. Description: Pancreatic cancer cell proliferation inhibitory activity, Gemcitabine resistant-MIA-PaCa2. In kind it is cell-based. Conditions: 72 hours, Cell Counting Kit-8, relative IC50. The procedure: as §3, §4
A further test concerns DLD-1. The test can be described thus: Colorectal cancer cell proliferation inhibitory activity, DLD-1. In kind it is cell-based. Conditions: Homo sapiens, 72 hours, Cell Counting Kit-8, relative IC50. How it is done: (§5) Experiments were performed using seven types of colorectal cancer cell lines to measure the cell proliferation inhibitory ability of each Example compound. DLD-1, LoVo, SW620, SW480, HCT116, HCT15, and HT29 cells were dispensed into a 96-well plate at 100 µL of cell suspension per well using RPMI1640 medium containing 10 % FBS and 1 % PS, followed by incubation in a cell incubator at 37 °C and 5 % CO2. The next day, each Example compound dissolved and diluted in DMSO across 10 concentration ranges and a DMSO control group were treated on the cells for 72 hours. After completion of the compound treatment, 10 µL of Cell Counting Kit-8 (Dojindo) reagent was added to each well of the 96-well plate, followed by incubation for 2 hours. […] were measured after inserting the 96-well plate into an Envision plate reader […]. Relative IC50 values were calculated by fitting a dose-response curve using Graphpad PRISM software.
(§6) The colorectal cancer cell proliferation inhibitory activities of the Example compounds measured by the method described above were evaluated according to the following criteria, and the results are presented in Table 19.

The subject of the next test is LoVo. The test can be described thus: Colorectal cancer cell proliferation inhibitory activity, LoVo. In kind it is cell-based. Conditions: Homo sapiens, 72 hours, Cell Counting Kit-8, relative IC50. How it is done:
as §5, §6

A further test relates to SW620. Description: Colorectal cancer cell proliferation inhibitory activity, SW620. It is filed as cell-based. Conditions: Homo sapiens, SW-620; 72 hours, Cell Counting Kit-8, relative IC50. The procedure: as §5, §6
For a further test, the system named is HCT116. Description: Colorectal cancer cell proliferation inhibitory activity, HCT116. It is filed as cell-based. As to conditions: Homo sapiens, HCT-116; 72 hours, Cell Counting Kit-8, relative IC50. How it is done: as §5, §6
The subject of test [2] is HCC70 breast cancer cells. Description: Zebrafish xenograft breast cancer model (HCC70). In kind it is in vivo. As to conditions: 48 hours, compared to the vehicle, FIG. 6. The procedure:
Transgenic Tg(fli1:EGFP)y1 zebrafish embryos were cultured in E3 embryo medium with 0.2 mM 1-phenyl-2-thiourea (PTU) at 28 °C for 48 hours. HCC70 breast cancer cells were cultured using RPMI-1640 medium supplemented with 10 % FBS, and AGS gastric cancer cells were cultured using F-12K medium supplemented with 10 % FBS. Each cell was collected, labeled with Dil red fluorescent dye, and then subcutaneously transplanted into 2-day-old zebrafish embryos. After selecting embryos with tumors, they were classified into experimental groups (20 embryos per group), and each Example compound dissolved and diluted in DMSO across 2 to 3 concentration ranges, a DMSO control group, or a comparative compound were added, followed by incubation at 35.5 °C for 48 hours or 72 hours. In the breast cancer model, primary tumors were collected immediately after transplantation (Day 0) and after 48 hours (Day 2), and in the gastric cancer model, primary tumors were obtained immediately after transplantation (Day 0) and after 72 hours (Day 3). Images of the collected tumors were analyzed for reduction in tumor size compared to the DMSO control group using image software, and the number of disseminated cancer cells after 3 days was manually counted through the captured images, with the results shown in FIGs. 6, 7, and 8. […]

What is called IC50 is the point on the concentration scale where inhibition reaches its midpoint. Higher therefore signals weaker potency in that assay. In the case of `CN1CCN(c2cc(NCc3nc4ccc(F)c(F)c4[nH]3)c3ncc(C(F)(F)F)n3n2)CC1` [Example 8, N-((6,7-difluoro-1H-benzo[d]imidazol-2-yl)methyl)-6-(4-methylpiperazin-1-yl)-3-(trifluoromethyl)imidazo[1,2-b]pyridazin-8-amine], the half-inhibitory concentration (IC50) (in the test on NCI-H23; with NCI-H358 cells; in the test with MIA-PaCa2-Control; in [1]; with DLD-1; in the test with LoVo) was no more than 200 nM throughout. Also, the IC50 in the test with SW620 and in the test on HCT116 was no more than 200 nM throughout.

With `N#CC1CN(c2cc(NCc3nc4cc(Cl)c(Cl)cc4[nH]3)c3ncc(C(F)(F)F)n3n2)C1` [Example 30, 1-(8-(((5,6-dichloro-1H-benzol[d]imidazol-2-yl)methyl)amino)-3-(trifluoromethyl)imidazo[1,2-b]pyridazin-6-yl)azetidine-3-carbonitrile], in test [2], the “reduction in tumor size” value is recorded as “dose-dependent reduction in tumor size”.
